What was measured:
[1] = test system: PtdIns(4,5)P2 in the plasma membrane; test: Effect of ionomycin on plasma membrane PtdIns(4,5)P2 in cells microinjected with DAN-eENTH; type: cell-based; conditions: majority of DAN-eENTH released to the cytosol
Procedure: [DAN-eENTH] was adjusted to give strong enough FB and FG signals for robust data analysis. […] Also, when [PtdIns(4,5)P2] in the plasma membrane was lowered by ionomycin treatment, a majority of DAN-eENTH was released to the cytosol.
NIH 3T3 cells were seeded into 8-well plates and grown at 37° C. in a humidified atmosphere of 95% air and 5% CO2 in Dulbecco's modified Eagle's medium (DMEM) (Invitrogen) supplemented with 10% (v/v) fatal bovine serum (Invitrogen). DAN-eENTH was delivered into the cells by microinjection using the Eppendorf InjectMan NI 2 system. All microscopy measurements and data analysis were performed as described above. For cell measurements, the minimal FB value was taken from the cytosol where PtdIns(4,5)P2 is absent and (FB)max was taken after the excess amount of exogenous PtdIns(4,5)P2 was delivered to the cell by either microinjection or as vesicle formulation. […] Thus, the cellular [PtdIns(4,5)P2] was determined from the observed (FB/FG) values using the in vitro calibration curve determined using POPC/POPS/PtdIns(4,5)P2 GUVs.

[2] = target: T1, DAN-eENTH: epsin 1 ENTH domain variant M10C/C96A/S4W, SEQ ID NO: 2, labeled with DAN at C10 (Homo sapiens, UniProt Q9Y6I3, C96A/M10C/S4W); test: SPR: effect of IP3 on DAN-eENTH binding to PtdIns(4,5)P2-containing vesicles; conditions: 5 μM IP3; 50 nM DAN-eENTH; POPC/POPS/PtdIns(4,5)P2 (77:20:3) LUVs; 5 min incubation; pH 7.4
T1 construct: The Epsin1 ENTH domain (1-158 amino acids) was subcloned; GST (C, cleaved yes); made in house; host or cells: E. coli BL21 RIL codon plus
T1 sequence (Q9Y6I3 1-158 S4W/M10C/C96A): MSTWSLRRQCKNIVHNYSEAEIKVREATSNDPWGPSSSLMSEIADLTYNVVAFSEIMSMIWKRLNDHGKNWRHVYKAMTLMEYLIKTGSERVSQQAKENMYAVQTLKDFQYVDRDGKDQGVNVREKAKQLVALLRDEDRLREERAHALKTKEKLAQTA
Procedure: (§1) With respect to FIG. 1, an L1 sensor chip was coated with POPC/POPS/PtdIns(4,5)P2 (77:20:3) LUVs. The proteins were incubated with a given concentration of IP3 for 5 minutes before injecting into the SPR instrument. Kinetic SPR measurements were performed in 20 mM Tris-HCL, pH 7.4, containing 0.16 KCl. […] A lower concentration of DAN-eENTH was used than that of PLCδ PH because the former has much higher affinity that the latter.

[3] = test system: PLCδ PH domain; test: SPR: inhibition by IP3 of PLCδ PH domain binding to PtdIns(4,5)P2-containing vesicles; conditions: 5 μM IP3; 250 nM PLCδ PH domain; POPC/POPS/PtdIns(4,5)P2 (77:20:3) LUVs; 5 min incubation; pH 7.4
Procedure: as §1

[4] = SPR analysis of lipid selectivity of Lact-C2 and mutant; type: binding; conditions: FIG. 12(a), 12(b)
Text: The Lact-C2 domain was converted into a PA-specific protein through protein engineering based on the crystal structure of Lact-C2 (J. Biol. Chem., (283)7230-7241 (2008)) and our molecular insight into PA and PS binding proteins. In the crystal structure, D80, H83, and Q85 interact with the serine head group of PS, so we mutated them to R, E, and K, respectively, to abrogate PS binding. Since PA has higher negative charge density without the head group, a mutant without PS binding may still interact with PA with high affinity. […] PA formation in NIH 3T3 cells in the presence of the phorbol ester, PMA, was successfully quantified.

C[C@H](CCC(=O)O)C[C@H](C)C[C@H](C)C(=O)/C=C(\O)[C@H](C)C[C@H](C)C/C=C/[C@@H](C)[C@@H](O)[C@@H](C)[C@@H](O)C[C@@H]1CC[C@@](C)([C@H]2CC[C@@](C)([C@@H](C)O)O2)O1 [ionomycin]
[PtdIns(4,5)P2] in the plasma membrane upon ionomycin treatment [1]: lowered

O=P(O)(O)O[C@@H]1[C@H](O)[C@H](O)[C@@H](OP(=O)(O)O)[C@H](OP(=O)(O)O)[C@H]1O [IP3, inositol-(1,4,5)-triphosphate]
effect on binding to PtdIns(4,5)P2-containing vesicles [2]: minimal effect
inhibition of binding to PtdIns(4,5)P2-containing vesicles [3]: > 70%

B1: Lact-C2: C2 domain of bovine lactadherin, SEQ ID NO:3 (protein)
chain: CTEPLGLKDNTIPNKQITASSYYKTWGLSAFSWFPYYARLDNQGKFNAWTAQTNSASEWLQIDLGSQKRVTGIITQGARDFGHIQYVAAYRVAYGDDGVTWTEYKDPGASESKIFPGNMDNNSHKKNIFETPFQARFVRIQPVAWHNRITLRVELLGC
modifications: C2 domain of bovine lactadherin.
lipid selectivity by SPR [4]: PS-specific
